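These data come from cells grown in 96-well plates and exposed to compound for 48 hours at five concentrations. At the TGI there is no net growth.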
Assays:
Test in all cases: inhibition of tumour cell growth, NCI panel, 48 h
[1] = system: 786-0 renal
[2] = system: A498 renal
[3] = system: A549 NSCLC
[4] = system: ACHN renal
[5] = system: BT-549 breast
[6] = system: CAKI-1 renal
[7] = system: CCRF-CEM leukemia
[8] = system: COLO 205 colon
[9] = system: DU-145 prostate
[10] = system: EKVX NSCLC
[11] = system: HCC-2998 colon
[12] = system: HCT-116 colon
[13] = system: HCT-15 colon
[14] = system: HL-60(TB) leukemia
[15] = system: HOP-62 NSCLC
[16] = system: HOP-92 NSCLC
[17] = system: HS 578T breast
[18] = system: HT29 colon
[19] = system: IGROV1 ovarian
[20] = system: K-562 leukemia
[21] = system: KM12 colon
[22] = system: LOX IMVI melanoma
[23] = system: M14 melanoma
[24] = system: MCF7 breast
[25] = system: MDA-MB-231 breast
[26] = system: MDA-MB-435
[27] = system: MDA-N
[28] = system: MOLT-4 leukemia
[29] = system: NCI-H226 lung
[30] = system: NCI-H23 lung
[31] = system: NCI-H460 lung
[32] = system: NCI-H522 lung
[33] = system: NCI/ADR-RES ovarian
[34] = system: OVCAR-3 ovarian
[35] = system: OVCAR-4 ovarian
[36] = system: OVCAR-5 ovarian
[37] = system: OVCAR-8 ovarian
[38] = system: PC-3 prostate
[39] = system: RPMI-8226 leukemia
[40] = system: RXF 393 renal
[41] = system: SF-268 CNS
[42] = system: SF-295 CNS
[43] = system: SF-539 CNS
[44] = system: SK-MEL-2 melanoma
[45] = system: SK-MEL-5 melanoma
[46] = system: SK-OV-3 ovarian
[47] = system: SN12C renal
[48] = system: SNB-19 CNS
[49] = system: SR leukemia
[50] = system: SW-620 colon
[51] = system: T-47D breast
[52] = system: TK-10 renal
[53] = system: U251 CNS
[54] = system: UACC-257 melanoma
[55] = system: UACC-62 melanoma
[56] = system: UO-31 renal
[57] = system: MALME-3M melanoma
[58] = system: SK-MEL-28 melanoma
[59] = system: SNB-75 CNS

Measured: TGI

CC1=C(C(=O)NNC(=O)C[N+](C)(C)C)CC(C(=O)NNC(=O)C[N+](C)(C)C)=C(C)N1
94 µM: [7]
not listed: [57] | [58] | [59]
> 100 µM: all other assays above

CC[C@@H]1CC[C@@H]2[C@H](CC[C@]3(C)[C@@H](O[N+](=O)[O-])CC[C@@H]23)[C@H]1C(C)=O
80.9 µM: [10] | [32]
33.4 µM: [18]
96.4 µM: [51]
49.9 µM: [39]
37 µM: [14]
40.4 µM: [45]
83.1 µM: [24]
55 µM: [54]
39.5 µM: [22]
24.4 µM: [8]
65.3 µM: [57]
74.9 µM: [38]
95.9 µM: [2]
70.2 µM: [16]
80.7 µM: [21]
76 µM: [31]
75.1 µM: [25]
not listed: [44] | [46] | [55]
> 100 µM: all other assays above

N#CC1=C(S)N(C2OC(CO)C(O)C(O)C2O)C(c2ccccc2)=CC1c1ccco1 (centres undefined)
45.1 µM: [59]
53.5 µM: [53]
93 µM: [22]
42.1 µM: [55]
99.5 µM: [51]
not listed: [4] | [8] | [10] | [46] | [50]
> 100 µM: all other assays above

COc1cc(S(=O)(=O)Nc2nc(-c3ccc(N=Cc4ccccc4O)cc3)cs2)ccc1Cl
71.5 µM: [45]
75.9 µM: [55]
77.3 µM: [47]
86.8 µM: [10]
61.8 µM: [8]
not listed: [39]
> 100 µM: all other assays above

— PubChem BioAssay (NCI)
